{"source": "a melting point compilation (Tetko et al.; mined from patent text by program, amines drawn as free bases though some values may be those of a salt)"}
{"units": {"melting point": "°C"}}
{"smiles": "CC(=O)Nc1nc(C)c(CCN2CCC(=C(c3ccc(F)cc3)c3ccc(F)cc3)CC2)c(=O)n1C", "melting point": 141}
{"smiles": "CC1(C)OC[C@H](c2cnc(NC(=O)C(C)(C)C)cn2)O1", "melting point": "142 to 143"}
{"smiles": "O=C(NCC(=O)N(c1ccccc1)c1ccccc1)Nc1cccc([N+](=O)[O-])c1", "melting point": 180}
{"smiles": "CCCCOc1nc(N)c2[nH]c(=O)n(CCN(C)Cc3cccc(CC(=O)O)c3)c2n1", "melting point": "164 to 166"}
{"smiles": "CCOc1cc(Cc2cnc(N)nc2N)cc2c1OC(C)(C)C=C2C", "melting point": "216 to 218"}
{"smiles": "COCc1cc(O)c2nc(C)c(C)n2c1", "melting point": "164 to 165"}
{"smiles": "CCCn1cc(C(=O)O)c(=O)c2cnc(N3CCNCC3)nc21", "melting point": "259 to 261"}
{"smiles": "O=[N+]([O-])c1ccc(-n2cccn2)c(F)c1", "melting point": "128 to 129"}
{"smiles": "CCOCc1nc2c(N)nc3cc(OCc4csc(C)n4)ccc3c2n1CC(C)(C)O", "melting point": "200 to 201"}
{"smiles": "COc1ccc(C23CCCC2(c2ccc(OC)cc2)C3)cc1", "note": "(stereo not drawn)", "melting point": "92 to 93"}
{"smiles": "Cc1ccccc1C(=O)CN1C(=O)C(NC(=O)Nc2cccc(C(=O)O)c2)N=C(c2ccccc2F)c2cccc(C)c21", "note": "(stereo not drawn)", "melting point": "168 to 176"}
{"smiles": "O=c1[nH]c2sccc2c2ccccc12", "melting point": "266 to 268"}
{"smiles": "COc1ccc(-c2cc3cc(OC)cc(C(=O)O)c3o2)cc1", "melting point": "218 to 220"}
{"smiles": "CSc1nnnc2c1sc1nc(C)ccc12", "melting point": "197 to 198"}
{"smiles": "Cn1ccnc1COc1ccccc1[N+](=O)[O-]", "melting point": "172 to 174"}
{"smiles": "CCCCc1oc2ccccc2c1-c1ncc(-c2ccc3cc(O)ccc3c2)o1", "melting point": "184 to 186"}
{"smiles": "OC1(CNCc2ccccn2)CCN(CCCc2c[nH]c3ccc(-n4cnnc4)cc23)CC1", "melting point": "> 55"}
{"smiles": "Cc1nnc(Cl)c2cc3n(c12)CCCC3", "melting point": "272 to 274"}
{"smiles": "CCOC(=O)c1c(O)c2c(CC)nc(CC)cc2[nH]c1=O", "melting point": "159 to 160"}
{"smiles": "COC(=O)c1ccc(NC(C)=O)c2c1OCCC2", "melting point": 175}
{"smiles": "O=[N+]([O-])c1cc(CO)ccc1OCc1ccccc1", "melting point": "76 to 77"}
{"smiles": "CC1(CCN)OCCc2c1[nH]c1ccccc21", "note": "(stereo not drawn)", "melting point": "80 to 84"}
{"smiles": "C#CCOc1cc(C(=O)OC)cc(OC)c1OC", "melting point": "72 to 73.5"}
{"smiles": "COc1cc2c(c(Cl)c1Cl)C(=O)C(C)(C)C2", "melting point": 142}
{"smiles": "Cc1oc(-c2ccccc2)nc1CCOc1cccc(-c2cccc(OC3(C(=O)O)CCC3)c2)c1", "melting point": 127}
{"smiles": "C=COCCOc1ccc(C2(c3ccc(OCCOC=C)cc3)CCC(c3ccc(OCCOC=C)cc3)(c3ccc(OCCOC=C)cc3)CC2)cc1", "melting point": "138 to 139"}
{"smiles": "CCOCc1c2ccccc2cc2ccccc12", "melting point": "74 to 75"}
{"smiles": "CCCCCC(=O)N1C(=O)CC[C@H]1C(=O)O", "melting point": "85 to 90"}
{"smiles": "CCOC(=O)N1C(=O)C(C)(C)c2cc(C3=NNC(=O)SC3C)ccc21", "note": "(stereo not drawn)", "melting point": 246}
{"smiles": "CSc1nn(C(=O)NC(C)CCl)c(=O)n1N", "note": "(stereo not drawn)", "melting point": 136}
{"smiles": "CCOC(=O)C(=O)C(C#N)c1ccc(Cl)cc1", "note": "(stereo not drawn)", "melting point": "135 to 136"}
{"smiles": "CC(=O)NCCc1c[nH]c2ncccc12", "melting point": 168}
{"smiles": "O=C(O)C[C@H]1C[C@@H](CCCCCCc2ccc(Cl)cc2Cl)OC1=O", "note": "(relative stereo)", "melting point": "57 to 59"}
{"smiles": "Cc1cc(N(C)C)nc(N)n1", "melting point": "172 to 174"}
{"smiles": "CC(=O)N1CCC(O)(C(=O)c2cc(F)ccc2F)CC1", "melting point": "118 to 120"}
{"smiles": "Cc1ccc(NC(=O)CN2C(=O)C3(COc4cc5c(cc43)CCO5)c3ccccc32)c(C)c1", "note": "(stereo not drawn)", "melting point": "277 to 279"}
{"smiles": "CON1C=C2N=NC3=C(N2C1)N(c1cc(Cl)ccc1Cl)CC(C)=C3", "melting point": "159 to 162"}
{"smiles": "O=c1[nH]c2cc(Cl)cc(Cl)c2cc1Br", "melting point": "> 300"}
{"smiles": "O=C1N(Cc2ccc(C(F)(F)F)o2)c2cc3c(cc2C12COc1cc4c(cc12)CCO4)OCCO3", "note": "(stereo not drawn)", "melting point": "189 to 191"}
{"smiles": "O=S(=O)(Oc1ccc(OCc2ccc3ccccc3n2)cc1C1(c2ccccc2)CC2CCC1C2)C(F)(F)F", "note": "(stereo not drawn)", "melting point": "131 to 132"}
{"smiles": "O[C@H]1C[C@@H](c2ccccc2)c2ccc(Cl)cc21", "melting point": 109}
{"smiles": "CCOC(=O)CCc1cn(-c2ccc([N+](=O)[O-])cn2)nc1C(C)C", "melting point": "90 to 91"}
{"smiles": "NCCC1CCSc2[nH]c3ccccc3c21", "note": "(stereo not drawn)", "melting point": "136 to 138"}
{"smiles": "CC(C)NCC(O)COc1ccccc1C1=NNC(=O)CC1", "note": "(stereo not drawn)", "melting point": "124 to 126"}
{"smiles": "CCCCNC(=O)NC(=O)c1cc([N+](=O)[O-])cnc1C", "melting point": "111 to 112"}
{"smiles": "NC(CC(=O)O)c1ccc(OC(F)(F)F)cc1", "note": "(stereo not drawn)", "melting point": "258 to 260"}
{"smiles": "COc1cccc(OC)c1-c1ccc(C[C@H](NC(=O)c2c(Cl)cc(-c3cscn3)cc2Cl)C(=O)O)cc1", "melting point": 186}
{"smiles": "COc1ccc(C2C(=O)N(c3ccccc3)N(c3ccccc3)C2=O)cc1", "melting point": "184 to 185"}
{"smiles": "O=C(Nn1ccnc1)N1CCCCC1COCc1ccccc1Cl", "note": "(stereo not drawn)", "melting point": "91 to 92"}
{"smiles": "O=C(CBr)Nc1ccc(F)cc1C(=O)c1ccccc1Br", "melting point": "110 to 114"}
{"smiles": "CC(C)(C)OC(=O)NC12CCC1CN(c1c(F)cc3c(=O)c(C(=O)O)cn(C4CC4)c3c1Cl)C2", "note": "(stereo not drawn)", "melting point": "200 to 202"}
{"smiles": "CC(=O)c1cnn(C)c1S(N)(=O)=O", "melting point": "153 to 162"}
{"smiles": "CC(=O)N1CCN(CCCOc2ccc(N3CCN(c4ccc5nnc(C(F)(F)F)n5n4)CC3)cc2)CC1", "melting point": 162}
{"smiles": "CC(C)(C)c1ccc(C=NOCCOc2ccc(C(=O)O)c(OCc3ccc(C(F)(F)F)cc3)c2)cc1", "melting point": "164 to 165"}
{"smiles": "Cc1cccc(Cl)c1-n1[nH]c(C(C)C)c2c(=O)nc(Cc3ccc(N)cc3)nc1-2", "melting point": "206 to 207"}
{"smiles": "COC(=O)c1ccc(CCN(C)CCCC(C#N)(C(=O)OC)c2ccc(OC)c(OC)c2)cc1", "note": "(stereo not drawn)", "melting point": "80 to 83"}
{"smiles": "COc1cc(C(=O)NC2CC2)c(Cl)cc1O", "melting point": "214 to 216"}
{"smiles": "COc1cc(C(=O)NS(=O)(=O)c2ccccc2Cl)ccc1Cc1cn(C)c2ccc(CCNC(=O)N3CCOCC3)cc12", "melting point": "175 to 181"}
{"smiles": "COc1cc(COC(=O)NC2Cc3ccccc3C2)ccc1OC(C)=O", "melting point": "114 to 116"}
{"smiles": "O=C1CCCc2c(cccc2OCC2CO2)N1", "note": "(stereo not drawn)", "melting point": "121 to 123"}
{"smiles": "C[Si](C)(C)C#Cc1cc2ccc(-n3nc4ccc5ccccc5c4n3)cc2oc1=O", "melting point": "250 to 252"}
{"smiles": "COc1ccc(C(C#N)N2C(=O)c3cccc(NC(C)=O)c3C2=O)cc1OC1CCCC1", "note": "(stereo not drawn)", "melting point": "124 to 126"}
{"smiles": "CN(C)C(=O)c1ccccc1Sc1c[nH]c2ccccc12", "melting point": "194 to 196"}
{"smiles": "N#Cc1ccc(-c2ccno2)cc1", "melting point": "148 to 149"}
{"smiles": "N#CC(=NO)c1c(F)cccc1Cl", "melting point": "119 to 120"}
{"smiles": "COc1ccc(C(=O)Nc2ccc(Cl)c(Cl)c2)cc1NS(C)(=O)=O", "melting point": "226 to 228"}
{"smiles": "CC(C)OC1=CC=CN2C1=NC(=O)C2(Cc1ccccc1)Cc1ccccc1", "melting point": "247 to 248"}
{"smiles": "CN(CC(=O)O)S(=O)(=O)c1csc2ccccc12", "melting point": "139 to 140"}
{"smiles": "CCCC1=C(C(=O)OCC)C(c2cccnc2)c2c[nH]nc2N1", "note": "(stereo not drawn)", "melting point": 251}
{"smiles": "CO[C@]12C[C@@H](CCN3CCC(O)(c4ccc(Cl)cc4)CC3)CN(C)[C@@H]1Cc1c[nH]c3cccc2c13", "melting point": "133 to 139"}
{"smiles": "O=c1cc2c(nn1-c1ccc(Cl)cc1)-c1cc(CO)sc1CCC2", "melting point": "118 to 121"}
{"smiles": "O=C1CCc2c1cccc2[N+](=O)[O-]", "melting point": "94 to 97"}
{"smiles": "C=CCNC(=O)N1CC(OCc2cccc(C(F)(F)F)c2)C1", "melting point": 108}
{"smiles": "COC(=NC#N)NCc1ccc(-c2csc(N=C(N)N)n2)o1", "melting point": "205 to 206"}
{"smiles": "O=C(COCc1ccccc1)NC(C(=O)O)c1ccccc1", "note": "(stereo not drawn)", "melting point": "127 to 130"}
{"smiles": "O=C(Nc1cccc(Cl)c1)c1cc(Br)ccc1O", "melting point": "231 to 232"}
{"smiles": "CCc1ccc2c(c1)C=Cc1cc(C)ccc1C2c1cn(-c2ccnc(N3CC(C(=O)Nc4nnn[nH]4)C3)n2)c(=O)[nH]c1=O", "note": "(stereo not drawn)", "melting point": 252}
{"smiles": "CC(c1ccc(F)cc1)N1CC(C)(C)C(Oc2ccc(C#N)c(C(F)(F)F)c2)C1=O", "note": "(stereo not drawn)", "melting point": "82 to 83"}
{"smiles": "O=C(O)c1cnn2c(C(F)(F)F)cc(-c3ccc(C(F)(F)F)c(OCC(F)(F)F)c3)nc12", "melting point": 264}
{"smiles": "CCn1c(=O)c2[nH]c(/C=C/c3ccc(OC)c(Br)c3)nc2n(CC)c1=O", "melting point": "> 280"}
{"smiles": "CCOC(=O)C(CCc1ccccc1)=NO", "melting point": "84 to 85"}
{"smiles": "Cn1c(C(F)(F)F)cc(=O)n(-c2ccc(Cl)c(S(N)(=O)=O)c2)c1=O", "melting point": "257 to 258"}
{"smiles": "COc1ccc2cnc(=O)[nH]c2c1C(C)C", "melting point": "188 to 190"}
{"smiles": "CCCCC=CCCCCC(=O)CCCCC=CCCCCC=O", "melting point": "80 to 83"}
{"smiles": "COc1ccc(COc2cccnc2NC(=N)Nc2ccccc2)cc1", "melting point": "141 to 143"}
{"smiles": "CC(O)c1nccc2ccccc12", "note": "(stereo not drawn)", "melting point": "60 to 62"}
{"smiles": "CN(C)C(=O)c1cc2n(c1)CCc1ccccc1C2=O", "melting point": "148 to 150"}
{"smiles": "O=C1OC2(CCNCC2)CN1Cc1ccccc1", "melting point": "69 to 71"}
{"smiles": "O=C(O)c1ccccc1Oc1ccc(Br)cc1[N+](=O)[O-]", "melting point": "136 to 138"}
{"smiles": "COC(=O)CCCc1cc2cc(Cl)ccc2n1S(=O)(=O)c1cccc2cccnc12", "melting point": "120 to 124"}
{"smiles": "O=[N+]([O-])c1ccc2c(C3=CCN(C[C@H](O)COc4cccc5[nH]ccc45)CC3)c[nH]c2c1", "melting point": "225 to 230"}
{"smiles": "COc1cc(NC(=O)C(F)(F)F)cc(OC)c1C(C)=O", "melting point": "172 to 173"}
{"smiles": "CN(C)CCn1ccc(-c2ccc(F)cc2)c1-c1ccncc1", "melting point": "70 to 73"}
{"smiles": "CCc1nc(/C=C/c2cn(-c3ccccc3)nc2OCc2ccc(OCc3nc(-c4cccc(-c5nnn[nH]5)c4)oc3C)c(OC)c2)cs1", "melting point": "144 to 147"}
{"smiles": "Cc1nc(-c2ccc(C(=O)N[C@H]3CC[C@H](CCN4CCC(c5cccc6c5CCO6)CC4)CC3)cc2)no1", "melting point": 256}
{"smiles": "Fc1ccc(-c2cc(N3CCNCC3)nnc2C(F)(F)F)cc1", "melting point": 137}
{"smiles": "N#Cc1ccc(-c2ccc(OS(N)(=O)=O)cc2)cc1Cn1cncn1", "melting point": "179 to 180"}
{"smiles": "CCCCCCCCCCCCC1=C(O)C(=O)NC1=O", "melting point": "108 to 109"}
{"smiles": "COc1ccc(Nc2nccc3ccn(S(=O)(=O)c4ccc(OC)cc4)c23)cc1", "melting point": "156 to 158"}
{"smiles": "CC1CC(=O)NN=C1c1ccc(N)c([N+](=O)[O-])c1", "note": "(stereo not drawn)", "melting point": "234 to 238"}
{"smiles": "O=S(=O)(c1ccc(Br)cc1)N1CCNCC1", "melting point": "102 to 104"}
{"smiles": "CSC1NC(=O)N(C)C(=O)N1N=C(C)C", "note": "(stereo not drawn)", "melting point": "130 to 132"}
{"smiles": "Cn1c(-c2ccccc2)cc2cc(N)ccc21", "melting point": "108 to 110"}
